This note sets out measurements from patent publication US12011444B2, “N-substituted indole derivatives as PGE2 receptor modulators” (Idorsia Pharmaceuticals Ltd, priority 2015, dated 2024).

Molecules are shown by their SMILES.

The target of one assay is EP4 (Homo sapiens (Human), UniProt P35408). Kind of assay: hEP4 cAMP assay (BT549 breast cancer cells, HTRF cAMP). The class given is cell-based. The method, then: Plate is pre-incubated 45 minutes at room temperature. Subsequently, 2.5 microliters of PGE2 (final conc. 6 nM) are transferred into the assay plate. Plate is incubated 30 minutes at room temperature.
(In general: Changes in cAMP serve as a functional read-out for many G protein-coupled receptors.)

The target of the next assay is EP2 (Homo sapiens (Human), UniProt P43116).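 Note: antagonism of PGE2-stimulated cAMP accumulation in SF295 human glioblastoma cells with endogenous EP2, cAMP read by HTRF, expressed relative to DMSO control.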
The mark [1] stands for this setting: antagonistic activity, mean values where measured multiple times.

Chain of EP4 (P35408 whole entry): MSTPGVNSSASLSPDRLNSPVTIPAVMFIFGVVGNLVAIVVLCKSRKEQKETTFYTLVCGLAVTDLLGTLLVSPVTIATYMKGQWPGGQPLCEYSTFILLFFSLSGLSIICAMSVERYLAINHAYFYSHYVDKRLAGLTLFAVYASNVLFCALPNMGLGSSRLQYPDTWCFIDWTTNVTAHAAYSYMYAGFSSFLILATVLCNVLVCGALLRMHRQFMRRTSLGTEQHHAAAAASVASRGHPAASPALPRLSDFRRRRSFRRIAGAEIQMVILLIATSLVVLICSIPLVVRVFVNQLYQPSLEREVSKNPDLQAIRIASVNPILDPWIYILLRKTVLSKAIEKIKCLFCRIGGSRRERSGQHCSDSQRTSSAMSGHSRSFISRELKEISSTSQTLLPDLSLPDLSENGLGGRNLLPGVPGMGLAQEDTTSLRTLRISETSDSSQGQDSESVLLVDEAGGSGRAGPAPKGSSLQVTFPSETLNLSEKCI
Chain of EP2 (P43116 whole entry): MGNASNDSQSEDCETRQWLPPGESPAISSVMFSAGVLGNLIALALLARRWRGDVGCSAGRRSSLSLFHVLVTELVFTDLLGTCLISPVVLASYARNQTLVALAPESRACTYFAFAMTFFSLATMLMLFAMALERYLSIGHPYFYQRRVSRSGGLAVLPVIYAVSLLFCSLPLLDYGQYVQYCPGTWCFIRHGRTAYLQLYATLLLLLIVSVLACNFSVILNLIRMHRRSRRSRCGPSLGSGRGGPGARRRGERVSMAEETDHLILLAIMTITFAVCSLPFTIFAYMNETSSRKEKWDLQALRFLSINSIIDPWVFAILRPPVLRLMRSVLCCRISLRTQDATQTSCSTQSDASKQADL

For the compound `CCCc1cc(-c2cc(NCCn3c(C)cc4cc(C)cc(F)c43)ncn2)cc(Cl)c1C(=O)O` [compound 414], the IC50 at EP4 (setting [1]) was 199 nM; at EP2, 35 nM.
For `COc1cc(F)cc2c1cc(C)n2CCNc1cc(-c2ccc(-c3ncnn3C)cc2)ncn1` [Example 753, [2-(6-Fluoro-4-methoxy-2-methyl-indol-1-yl)-ethyl]-{6-[4-(2-methyl-2H-[1,2,4]triazol-3-yl)-phenyl]-pyrimidin-4-yl}-amine] the same measures were 548 nM and 101 nM.
On the same counts, the results for `CCOc1cc(-c2cc(NCCn3c(Cl)cc4c(Cl)ccc(F)c43)ncn2)ccc1C(=O)O` [Example 778, 4-{6-[2-(2,4-Dichloro-7-fluoro-indol-1-yl)-ethylamino]-pyrimidin-4-yl}-2-ethoxy-benzoic acid] are 175 nM and 15 nM.
For `CCc1cc(-c2cc(NCCn3c(C)cc4c(OC)cc(F)cc43)ncn2)cc(Cl)c1C(=O)O` [compound 438] the same measures were 106 nM and 64 nM.
In the case of `COc1ccc(F)c2c1cc(C)n2CCNc1cc(-c2ccc3c(ccn3C)c2)ncn1` [compound 706, [2-(7-Fluoro-4-methoxy-2-methyl-indol-1-yl)-ethyl]-[6-(1-methyl-1H-indol-5-yl)-pyrimidin-4-yl]-amine], the IC50 on EP4 (setting [1]) was 55 nM; at EP2 it was 10 nM.
For `CCCOc1cc(-c2cc(NCCn3c(C)cc4c(OC)ccc(F)c43)ncn2)sc1C(=O)O` [compound 677] the same measures were 12 nM and 2 nM.
Turning to `CCOc1cc(-c2cc(NCCn3c(C)cc4c5c(cc(Cl)c43)OCO5)ncn2)ccc1C(=O)O` [compound 454, 4-{6-[2-(5-Chloro-7-methyl-[1,3]dioxolo[4,5-e]indol-6-yl)-ethylamino]-pyrimidin-4-yl}-2-ethoxy-benzoic acid], the IC50 on EP4 (setting [1]) was found to be 445 nM; against EP2, 14 nM.
For `CCCc1cc(-c2cc(NCCn3c(C)cc4cc(C)cc(F)c43)ncn2)cc(F)c1C(=O)O` [compound 417], the IC50 is 396 nM against EP4 (setting [1]) and 28 nM at EP2.
On the same counts, the results for `CCCc1cc(-c2cc(NCCn3c(C)cc4cc(Cl)cc(F)c43)ncn2)cc(Cl)c1C(=O)O` [compound 427] are 240 nM and 85 nM.
As to `CCNc1cc(-c2cc(NCCn3c(C)cc4c(OC)ccc(F)c43)ncn2)ccc1-c1nnn[nH]1` [compound 665, {6-[3-Ethylamino-4-(1H-tetrazol-5-yl)-phenyl]-pyrimidin-4-yl}-[2-(7-fluoro-4-methoxy-2-methyl-indol-1-yl)-ethyl]-amine], the figures for the IC50 on EP4 (setting [1]) and at EP2 were 13 nM and 2 nM, respectively.
On the same counts, the results for `CCCc1cc(-c2cc(NCCn3c(C)cc4c(C)cc(F)cc43)ncn2)cc(F)c1C(=O)O` [compound 415] are 153 nM and 53 nM.
On the same counts, the results for `COc1cc(F)cc2c1cc(C)n2CCNc1cc(-c2ccc(-c3oc(CCC(=O)O)nc3C)cc2)ncn1` [compound 651] are 257 nM and 166 nM.
On the same counts, the results for `COc1ccc(F)c2c1cc(C)n2CCNc1cc(-c2cc(OC(C)C)c(C(=O)O)s2)ncn1` [compound 675] are 7 nM and 4 nM.
On to `CCOc1cc(-c2cc(NCCn3c(C)cc4c(OC)ccc(F)c43)nc(C)n2)ccc1C(=O)O` [compound 494], for which the half-inhibitory concentration (IC50) was 618 nM on EP4 (setting [1]) and 25 nM on EP2.
On the same counts, the results for `CCOc1cc(-c2cc(NCCn3c(C)cc4c(OC)cc(F)c(F)c43)ncn2)ccc1C(=O)O` [compound 487] are 76 nM and 49 nM.
For `COc1cc(F)cc2c1cc(C)n2CCNc1cc(-c2ccc(-c3ncc(F)cn3)cc2)ncn1` [Example 762, [2-(6-Fluoro-4-methoxy-2-methyl-indol-1-yl)-ethyl]-{6-[4-(5-fluoro-pyrimidin-2-yl)-phenyl]-pyrimidin-4-yl}-amine] the same measures were 304 nM and 98 nM.
On to `Cc1cc2c(Cl)cc(Cl)cc2n1CCNc1cc(-c2ccc(C(=O)O)c(CC(C)C)c2)ncn1` [compound 418], for which the results for the IC50 on EP4 (setting [1]) and against EP2 were 691 nM and 74 nM, respectively.
Consider `CCOc1cc(-c2cc(NCCn3c(C)cc4c(OC)ccc(F)c43)ncn2)cc(CC)c1C(=O)O` [compound 618], for which the IC50 came out at 395 nM against EP4 (setting [1]) and 24 nM against EP2.
On the same counts, the results for `CCOc1cc(-c2cc(NCCn3c(C)cc4c(OC)c(F)cc(Cl)c43)ncn2)ccc1C(=O)O` [compound 486] are 325 nM and 91 nM.
On the same counts, the results for `CCNc1cc(-c2cc(NCCn3c(C)cc4c5c(cc(Cl)c43)OCO5)ncn2)ccc1C(=O)O` [compound 460, 4-{6-[2-(5-Chloro-7-methyl-[1,3]dioxolo[4,5-e]indol-6-yl)-ethylamino]-pyrimidin-4-yl}-2-ethylamino-benzoic acid] are 146 nM and 4 nM.
On the same counts, the results for `COc1cc(-c2cc(NCCn3c(C)cc4ccccc43)ncn2)ccc1-c1nnn[nH]1` [Example 746, {6-[3-Methoxy-4-(1H-tetrazol-5-yl)-phenyl]-pyrimidin-4-yl}-[2-(2-methyl-indol-1-yl)-ethyl]-amine] are 869 nM and 10 nM.
Turning to `COc1ccc(F)c2c1cc(C)n2CCNc1cc(-c2ccc(C(=O)O)c(OC(F)(F)F)c2)ncn1` [compound 606], the IC50 against EP4 (setting [1]) turned out to be 186 nM; at EP2 it was 8 nM.
For `Cc1nnc(-c2ccc(-c3cc(NCCn4c(C)cc5c(C)ccc(F)c54)ncn3)cc2)o1` [compound 553] the same measures were 192 nM and 102 nM.
Regarding `Cc1ccc(F)c2c1cc(C)n2CCNc1cc(-c2ccc(-c3ccccn3)cc2)ncn1` [compound 561], the IC50 at EP4 (setting [1]) was 374 nM; on EP2, 102 nM.
On the same counts, the results for `COc1cc(F)cc2c1cc(C)n2CCNc1cc(-c2ccc(-c3ncc(C)n3C)cc2)ncn1` [Example 752, {6-[4-(1,5-Dimethyl-1H-imidazol-2-yl)-phenyl]-pyrimidin-4-yl}-[2-(6-fluoro-4-methoxy-2-methyl-indol-1-yl)-ethyl]-amine] are 633 nM and 85 nM.
On to `CCOc1cc(-c2cc(NCCn3c(C)cc4c(OC)cc(F)cc43)nc(C(F)(F)F)n2)sc1C(=O)O` [compound 635], for which the figures for the IC50 against EP4 (setting [1]) and against EP2 were 186 nM and 50 nM, respectively.
On the same counts, the results for `CCCCOc1cc(-c2cc(NCCn3c(C)cc4c(OC)cccc43)ncn2)ccc1C(=O)O` [compound 484] are 117 nM and 1 nM.
For `CCOc1cc(-c2cc(NCCn3c(C)cc4c(C)cc(F)cc43)nc(C)n2)ccc1C(=O)O` [compound 440] the same measures were 905 nM and 57 nM.
On the same counts, the results for `Cc1cc2c(F)ccc(C#N)c2n1CCNc1cc(-c2ccc(C(=O)O)c(CC(C)C)c2)ncn1` [compound 482] are 986 nM and 686 nM.
In the case of `COc1cccc2c1cc(C)n2CCNc1cc(-c2ccc(C(=O)O)c(NCC(F)(F)F)c2)ncn1` [compound 568, 4-{6-[2-(4-Methoxy-2-methyl-indol-1-yl)-ethylamino]-pyrimidin-4-yl}-2-(2,2,2-trifluoro-ethylamino)-benzoic acid], the IC50 against EP4 (setting [1]) was found to be 118 nM; at EP2 it was 1 nM.
On the same counts, the results for `CCCc1cc(-c2cc(NCCn3c(C)cc4cc(OC)cc(F)c43)ncn2)ccc1C(=O)O` [compound 443] are 487 nM and 175 nM.
For `COc1ccc(F)c2c1cc(C)n2CCNc1cc(-c2cc(Cl)c(C(=O)O)c(OCC(C)C)c2)ncn1` [compound 690] the same measures were 35 nM and 5 nM.
With `COc1cc(Cl)cc2c1cc(C)n2CCNc1cc(-c2ccc(C(=O)O)c(CC(C)C)c2)ncn1` [compound 529], the IC50 against EP4 (setting [1]) came out at 110 nM; against EP2 it was 19 nM.
With `CCCCOc1cc(-c2cc(NCCn3c(C)cc4c(OC)ccc(Cl)c43)ncn2)ccc1C(=O)O` [compound 613], the half-inhibitory concentration (IC50) on EP4 (setting [1]) amounted to 221 nM; at EP2, 4 nM.
On the same counts, the results for `Cc1cc(-c2ccc(-c3cc(NCCn4c(C)cc5c(C)ccc(F)c54)ncn3)cc2)on1` [compound 714] are 958 nM and 72 nM.
For `COc1cc(F)cc2c1cc(C)n2CCNc1cc(-c2ccc(-c3cnc(N)o3)cc2)ncn1` [compound 572] the same measures were 45 nM and 18 nM.
`Cc1cc(F)cc2c1cc(C)n2CCNc1cc(-c2ccc3[nH]ccc3c2)ncn1` [compound 697, [2-(6-Fluoro-2,4-dimethyl-indol-1-yl)-ethyl]-[6-(1H-indol-5-yl)-pyrimidin-4-yl]-amine]: the results for the IC50 against EP4 (setting [1]) and against EP2 were 77 nM and 15 nM, respectively.
On the same counts, the results for `COc1ccc(F)c2c1cc(C)n2CCNc1cc(-c2ccc3c(c2)CN(CC(C)C)C3=O)ncn1` [compound 475] are 259 nM and 54 nM.
On the same counts, the results for `COc1ccc(F)c2c1cc(C)n2CCNc1cc(-c2ccc(-c3oncc3C)cc2)ncn1` [compound 737, [2-(7-Fluoro-4-methoxy-2-methyl-indol-1-yl)-ethyl]-{6-[4-(4-methyl-isoxazol-5-yl)-phenyl]-pyrimidin-4-yl}-amine] are 156 nM and 25 nM.
For `CCOc1cc(-c2cc(NCCn3c(C#N)cc4c(OC)ccc(F)c43)ncn2)sc1C(=O)NS(=O)(=O)C1CC1` [Example 816, Cyclopropanesuifonic acid (5-{6-[2-(2-cyano-7-fluoro-4-methoxy-indol-1-yl)-ethylamino]-pyrimidin-4-yl}-3-ethoxy-thiophene-2-carbonyl)-amide], the values for the IC50 at EP4 ((*): measured using the cAMP assay) and on EP2 were 15 nM and 24 nM, respectively.
As for `COc1ccc(F)c2c1cc(C)n2CCNc1cc(-c2ccc(-c3cncn3C)cc2)ncn1` [compound 584], the IC50 against EP4 (setting [1]) came out at 148 nM; on EP2, 39 nM.

Usually IC50 stands for the point on the concentration scale where inhibition reaches its midpoint.
